Data set [1] in a line: Solubility in acetonitrile by UV-vis spectroscopy. The class given is physicochemical. Conditions: absorbance at 568 nm, Beers law. The method, then:
Solutions were prepared by mixing roughly equal volumes of metal complex and solvent. The resulting black solution was concentrated with a stream of N2 until a slight crust began to form, which was re-dissolved with warming and agitation. The sample was then centrifuged at 8000 RPM for two hours and allowed to stand overnight. Concentrations were determined using absorbance at 568 nm, ε568=4540 M^−1cm^−1.

The nature of data set [2]: Static cell (H-cell) galvanostatic charge-discharge cycling. The following applies: 20 mM in acetonitrile, 0.1 M [TBA][PF6]; through cycle 16.
Procedure: Cyclic voltammetry (CV) was carried out using a Bio-Logic SP-200 potentiostat, a glassy carbon working electrode, a Pt wire counter electrode and a silver-wire pseudo reference electrode. Ferrocene was used as an internal standard. For static cell battery testing, an H-cell was used containing 20 mM anolyte/catholyte and 100 mM [NBu4][PF6] supporting electrolyte. Charge and discharge currents were 1 mA and 0.1 mA, respectively. Graphite electrodes (POCO) having a 2 cm^2 active area and a Tonen V25EKD separator were used.
A two-compartment cell with non-flowing solutions (i.e., “static cell”) was assembled to assess the charge-discharge characteristics of [V(mnt)3]^2− in a non-aqueous environment. Both compartments contained a 20 mM solution of 1b in acetonitrile with 0.1 M tetrabutylammonium hexafluorophosphate as supporting electrolyte. Two graphite electrodes (POCO) with 2 cm^2 active areas and a V25EKD separator (Tonen) were used. Because the discharged cathode and anode complexes are both in the 2^− oxidation state, it is presumed that the cathode complex converts to the 1^− state and the anode complex converts to the 3^− state during charge.
Data set [3] can be described thus: Cyclic voltammetry (redox potentials). The class given is physicochemical. Conditions: 20 mM in CH3CN with 0.1 M [TBA][PF6], 250 mV/s, room temperature; mid-point of anodic and cathodic peak potentials. The source says:
Ferrocene was used as an internal standard.
CV of 1b, shown in FIG. 7, is similar to that reported previously for [V(mnt)3]^2− with various cations. Three reversible waves corresponding to the 4^−/3^−, 3^−/2^− and 2^−/1^− redox couples are observed at −1.41 V, −0.227 V and 0.856 V vs. SHE, respectively. Redox potential values reported herein correspond to the mid-point between the anodic and cathodic peak potentials of a cyclic voltammogram. […] Thus, a battery cell constructed using 1 as both anolyte and catholyte has a theoretical cell potential of […] and a theoretical energy density of 13 W·h·L^−1. However, bulk reduction of [V(mnt)3]^2− to [V(mnt)3]^3− in the anodic half-cell before charging would result in a theoretical cell potential and energy density of 2.3V and 28 W·h·L^−1, respectively. These values compare favorably to previously reported non-aqueous RFB electrolytes. A RFB based on [V(mnt)3]^2− solutions would also benefit from having the same chemical species in both half-cells, a strategy that has been employed previously to prevent irreversible self-discharge from crossover of active redox species through the membrane. This feature then also enables the use of inexpensive, microporous separators that are not ion-selective.

Data set [4] is described as follows: Stability under air (solid and acetonitrile solution), CV and UV-vis. The class given is physicochemical. From the text: Long-term stability is a key consideration in the development of RFB systems and recent research has included extensive investigations of state-of-the-art aqueous RFB systems. Factors affecting stability and the decay of capacity including membrane chemistry, thermal effects, gas evolution and electrode corrosion have been identified and this remains an active research area. In comparison, the long-term stability of non-aqueous RFBs remains to be investigated. […] To investigate its stability in solution, a 1 mM acetonitrile solution was analyzed, stored for a period of one week under air atmosphere, and subsequently analyzed. […] Long-term studies to investigate the stability of the membrane, electrode and electrolytes have been initiated.

As for `CC[N+](CC)(CC)CC.CC[N+](CC)(CC)CC.N#CC([S-])=C([S-])C#N.N#CC([S-])=C([S-])C#N.N#CC([S-])=C([S-])C#N.[V+4]` [1b], the maximum solubility in data set [1] was ~900 mM. In data set [2], the “electrochemical yield (faradaic efficiency) of charge cycles, stabilized” value is listed as 20-25%. Moreover, in data set [3], the “redox potential 2−/1− couple” value is reported as 0.856 V vs. SHE, the “redox potential 3−/2− couple” value is −0.227 V vs. SHE and the “redox potential 4−/3− couple” value was −1.41 V vs. SHE.
Take `C[N+](C)(C)C.C[N+](C)(C)C.N#CC([S-])=C([S-])C#N.N#CC([S-])=C([S-])C#N.N#CC([S-])=C([S-])C#N.[V+4]` [1a]: the “stability in solution (CV and UV-vis spectroscopy)” value in data set [4] (1 mM acetonitrile solution, one week under air atmosphere) is recorded as “unchanged”. Moreover, the “stability as prepared to ambient oxygen and moisture” value in data set [4] (as prepared, stored under air) is on record as “no decomposition was observed”.
